In article PMC11405833, “Targeted sulfur(VI) fluoride exchange-mediated covalent modification of a tyrosine residue in the catalytic pocket of tyrosyl-DNA phosphodiesterase 1” (Communications Chemistry, 2024):
Like-named read-outs stand apart in the source and are kept apart here. Values belong to the compound of their own block, whether it stands above or below them.

Tests used:
[1] = biological target: T1, recombinant full-length TDP1 (Homo sapiens, UniProt Q9NUW8); experiment: gel-based TDP1 fluorescence assay in vitro (wild-type TDP1)
T1 sequence (Q9NUW8 whole entry): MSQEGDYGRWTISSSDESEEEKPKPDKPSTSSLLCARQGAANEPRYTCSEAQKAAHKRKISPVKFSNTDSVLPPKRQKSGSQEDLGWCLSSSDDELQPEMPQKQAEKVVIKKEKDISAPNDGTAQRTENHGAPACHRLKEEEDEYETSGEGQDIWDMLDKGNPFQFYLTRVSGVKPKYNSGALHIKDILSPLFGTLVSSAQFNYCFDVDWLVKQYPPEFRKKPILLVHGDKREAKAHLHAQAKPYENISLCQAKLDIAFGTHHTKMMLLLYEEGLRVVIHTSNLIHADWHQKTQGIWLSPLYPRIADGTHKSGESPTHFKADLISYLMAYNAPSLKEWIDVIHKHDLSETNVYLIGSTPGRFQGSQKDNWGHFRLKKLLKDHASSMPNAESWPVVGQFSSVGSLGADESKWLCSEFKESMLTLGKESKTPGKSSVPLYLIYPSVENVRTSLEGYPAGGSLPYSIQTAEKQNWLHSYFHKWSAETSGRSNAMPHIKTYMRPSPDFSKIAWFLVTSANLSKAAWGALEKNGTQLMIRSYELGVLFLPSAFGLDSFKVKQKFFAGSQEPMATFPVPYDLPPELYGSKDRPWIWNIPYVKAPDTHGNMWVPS
Description: The inhibition of TDP1 or TDP1^Y204F was also conducted using a gel-based assay as previously described[13],[14]. Briefly, the DNA substrate (1 nM, 5′Cy5-[sequence]-pY-3′, Cy5-N14Y) was incubated for 15 min. with recombinant full-length TDP1 or TDP1^Y204F (40 pM) in the absence or presence of inhibitors for 5 min. or 3 hr preincubation time as shown in Table 1 at room temperature (22 °C) in TDP1 reaction buffer (50 mM Tris HCl, pH 7.5, 80 mM KCl, 2 mM EDTA, 1 mM DTT, 40 µg/mL BSA and 0.01% Tween-20). […] Samples were then subjected to a 20% denaturing PAGE gel following by gel scanning using a Typhoon FLA 9500 scanner (GE Healthcare). The IC50 values of TDP1 inhibitors were calculated by comparing the percentage of cleavage product (5′Cy5-[sequence]-p-3′, Cy5-N14P) to DMSO control.

TDP1^Y204F = biological target: T2, TDP1^Y204F (Homo sapiens, UniProt Q9NUW8, Y204F); experiment: gel-based TDP1 fluorescence assay in vitro (mutant TDP1 Y204F); type: biochemical
T2 construct: was incubated for 15 min. with recombinant full-length TDP1 or TDP1^Y204F (40 pM)
T2 sequence (Q9NUW8 whole entry Y204F): as the sequence (Q9NUW8 whole entry) above, with Y204F counted along it
Description: The inhibition of TDP1 or TDP1^Y204F was also conducted using a gel-based assay as previously described[13],[14]. Briefly, the DNA substrate (1 nM, 5′Cy5-[…]-pY-3′, Cy5-N14Y) was incubated for 15 min. with recombinant full-length TDP1 or TDP1^Y204F (40 pM) in the absence or presence of inhibitors for 5 min. or 3 hr preincubation time as shown in Table 1 at room temperature (22 °C) in TDP1 reaction buffer (50 mM Tris HCl, pH 7.5, 80 mM KCl, 2 mM EDTA, 1 mM DTT, 40 µg/mL BSA and 0.01% Tween-20). […] Samples were then subjected to a 20% denaturing PAGE gel following by gel scanning using a Typhoon FLA 9500 scanner (GE Healthcare). The IC50 values of TDP1 inhibitors were calculated by comparing the percentage of cleavage product (5′Cy5-[…]-p-3′, Cy5-N14P) to DMSO control.

TDP1(148-608) = biological target: T3, TDP1(148-608) (Homo sapiens, UniProt Q9NUW8); experiment: intact mass LC-MS analysis of covalent modification; type: binding; conditions: 50 μM compound, overnight 25 °C, 1:65 enzyme/compound
T3 construct: The recombinant TDP1(148-608) (2 μg) in 50 μL of buffer
T3 sequence (Q9NUW8 148-608): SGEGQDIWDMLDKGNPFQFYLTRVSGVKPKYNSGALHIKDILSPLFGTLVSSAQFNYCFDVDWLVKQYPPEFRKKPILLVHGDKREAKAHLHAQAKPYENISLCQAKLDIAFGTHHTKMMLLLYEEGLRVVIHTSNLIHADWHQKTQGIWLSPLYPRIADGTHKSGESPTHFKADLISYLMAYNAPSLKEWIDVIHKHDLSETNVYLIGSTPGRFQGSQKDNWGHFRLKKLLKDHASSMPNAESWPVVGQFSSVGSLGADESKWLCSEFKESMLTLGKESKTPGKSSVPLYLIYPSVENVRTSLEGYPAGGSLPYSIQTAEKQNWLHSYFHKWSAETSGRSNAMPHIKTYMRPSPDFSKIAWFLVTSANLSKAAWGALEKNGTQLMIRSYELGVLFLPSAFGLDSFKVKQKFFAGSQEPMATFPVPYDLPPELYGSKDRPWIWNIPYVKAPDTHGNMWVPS
Description: The samples were incubated overnight at 25 °C with shaking at 500 rpm. The samples were diluted with water to 100 μL and analyzed by liquid chromatography coupled online with mass spectrometry (LC-MS)[67]. Separation was performed on a Vanquish Flex chromatographic system (Thermo) using a MabPac reversed-phase column (4 μm, 1500 Å, 3 ×50 mm, Thermo) maintained at 50 °C. The labeled proteins were resolved at 0.5 mL/min over a 15 min gradient of buffer B (47.5% acetonitrile, 47.5% isopropanol, 5% water, 0.2% formic acid (FA)) from 2 to 100% followed by re-equilibration at 2% buffer B (total run time 20 min) against buffer A (5% acetonitrile, 0.2% FA in water). The eluates from the column were introduced to an Exactive Plus EMR mass spectrometer (Thermo) through a heated electrospray ionization (HESI) source. Intact mass spectra were acquired over 500-2000 m/z window at 35,000 FT resolution (at 200 m/z), averaging 10 microscans, with an AGC target of 3 ×10^6, max injection time of 200 ms, 80% S-lens RF level, 20 V source-induced dissociation, and capillary temperature set at 275 °C. The resulting spectra were manually averaged followed by deconvolution using the ReSpect algorithm in BioPharma Finder 2.0 (Thermo). […]

[2] = biological target: T1, recombinant full-length TDP1; design: was incubated for 15 min. with recombinant full-length TDP1 or TDP1^Y204F (40 pM); method as in PMID 31199869; conditions: reported data; cited from earlier work
[3] = TDP1 IC50, pre-incubation time 5 min with wild-type (WT) TDP1

IC50 [1]: 4.61 ± 0.35 mM
Structure (SMILES): O=C(O)c1c[nH]c2c(S(=O)(=O)O)cccc2c1=O [Compound 2a]

IC50 [1]: 5.17 ± 0.14 mM
Structure (SMILES): O=C(O)c1c[nH]c2c(-c3ccccc3)cccc2c1=O [Compound 3a]

IC50 [1]: > 9 mM
Structure (SMILES): O=C(O)c1c[nH]c2c(S(=O)(=O)Nc3ccccc3)cccc2c1=O [Compound 2b]

IC50 [1]: > 9 mM
Structure (SMILES): O=C(O)c1c[nH]c2c(S(=O)(=O)NCCc3ccccc3)cccc2c1=O [Compound 2c]

Structure (SMILES): O=C(NCCc1ccccc1)c1ccc(-c2cccc3c(=O)c(C(=O)O)c[nH]c23)c(OS(=O)(=O)F)c1 [Compound 3g, 8-(2-((fluorosulfonyl)oxy)-4-(phenethylcarbamoyl)phenyl)-4-oxo-1,4-dihydroquinoline-3-carboxylic acid]
IC50 (TDP1^Y204F): 4.69 ± 1.26 mM
fold reduced inhibitory potency with mutant TDP1^Y204F vs WT (TDP1^Y204F; 5 min pre-incubation): 11 fold
mass shift of single covalent modification of TDP1(148-608) (loss of fluorine) (TDP1(148-608)): +490.83 Da
fold increase in inhibitory potency relative to parent compound 3c [1]: 5 to 10 fold
fold increase in inhibitory potency compared with quinolone 1a ([1]; 5 min pre-incubation, WT TDP1, vs 1a IC50 7.2 mM): 18 fold
fold increase in TDP1 inhibitory potency compared to quinolone 3a ([1]; 5 min pre-incubation, WT TDP1, vs 3a IC50 5.17 mM): 13 fold
IC50 [1, 3]: 0.41 ± 0.07 mM
IC50 ([1]; TDP1 IC50, pre-incubation time 3 h with WT TDP1): 0.27 ± 0.03 mM
fold enhancement of IC50 by extending pre-incubation time from 5 min to 3 h ([1]; WT TDP1): 1.5 fold

IC50 ([1]; read-out: TDP1 IC50, WT TDP1, dash = no activity up to highest tested concentration): > 9 mM
Structure (SMILES): O=C(O)c1c[nH]c2c(S(=O)(=O)NCCCc3ccccc3)cccc2c1=O [Compound 2d]

Structure (SMILES): O=C(O)c1cnc2ccccc2c1O [Compound 1a]
IC50 [2]: 7.2 mM

Structure (SMILES): O=C(O)c1c[nH]c2c(-c3cccc(OS(=O)(=O)F)c3)cccc2c1=O [Compound 3d]
IC50 [1, 3]: 0.69 ± 0.04 mM
